From BindingDB's records for doi:10.1016/j.bmc.2010.09.053 (Umr Cnrs 7201, 2012)

Assay: Inhibition of bovine liver beta-glucosidase

IC50: 244 µM
SMILES: C[C@@H]1CNC[C@@H](O)[C@@H](O)[C@@H]1O
